# Assay results as given in ChEMBL document CHEMBL3751742, “A one pot, two-step synthesis of 5-arylpyrrolo[2,3-d]pyrimidines and screening of their preliminary antibacterial properties” (2016).
# Calls of active or inactive are those of the source. The calls are words filed in the database; no cut-off is given here.
# Key:
# Type in all cases: functional
# Settings in all cases: for zone of inhibition at 5000 µg/mL: read-out: DIZ
# Escherichia coli = assay: Antibacterial activity against gram-negative Escherichia coli at 5 mg/ml after 24 hrs by well diffusion method
# Bacillus mycoides = assay: Antibacterial activity against gram-positive Bacillus mycoides at 5 mg/ml after 24 hrs by well diffusion method
# Bacillus subtilis = assay: Antibacterial activity against gram-positive Bacillus subtilis at 5 mg/ml after 24 hrs by well diffusion method
# Pseudomonas aeruginosa = assay: Antibacterial activity against gram-negative Pseudomonas aeruginosa at 5 mg/ml after 24 hrs by well diffusion method
SMILES,diameter of the inhibition zone (DIZ) (Escherichia coli),diameter of the inhibition zone (DIZ) (Bacillus mycoides),diameter of the inhibition zone (DIZ) (Bacillus subtilis),diameter of the inhibition zone (DIZ) (Pseudomonas aeruginosa),zone of inhibition at 5000 µg/mL (Escherichia coli) [mm],zone of inhibition at 5000 µg/mL (Bacillus mycoides) [mm],zone of inhibition at 5000 µg/mL (Bacillus subtilis) [mm],zone of inhibition at 5000 µg/mL (Pseudomonas aeruginosa) [mm]
Cn1c(=O)c2c(-c3ccc(Cl)cc3)c[nH]c2n(C)c1=O,inactive,inactive,inactive,inactive,,,,
Cn1c(=O)c2c(-c3cccs3)c[nH]c2n(C)c1=O,,,,,13,13,20,20
Cn1c(=O)c2c(-c3cccc4ccccc34)c[nH]c2n(C)c1=O,,,,,14,17,18,20
Cn1c(=O)c2c(-c3ccccc3)c[nH]c2n(C)c1=O,inactive,inactive,inactive,inactive,,,,
CN(C)c1ccc(-c2c[nH]c3c2c(=O)n(C)c(=O)n3C)cc1,,,,,11,12,15,20
COc1ccc(-c2c[nH]c3c2c(=O)n(C)c(=O)n3C)cc1,inactive,inactive,inactive,inactive,,,,
Cc1ccc(-c2c[nH]c3c2c(=O)n(C)c(=O)n3C)cc1,,,,,15,12,20,20
Cn1c(=O)c2c(-c3ccc(O)cc3)c[nH]c2n(C)c1=O,inactive,inactive,inactive,inactive,,,,
Cn1c(=O)c2c(-c3c[nH]c4ccccc34)c[nH]c2n(C)c1=O,,inactive,,,12,,20,20
Cn1c(=O)c2c(-c3ccco3)c[nH]c2n(C)c1=O,,inactive,,,12,,20,18
